Assay results from PubChem BioAssay AID248 (DTP/NCI, 2004).
“And” between values parts separate entries of the source, which are not always exact repeats. Identical values can stand only once. Toxic doses and inconclusive results are not listed. No stated cut-off is given here; in the data, active means T/C of 150% or more; inactive means T/C below 125%.

Test system: L1210 leukemia ip in BDF1 mice, survival T/C
Experiment: NCI In Vivo Anticancer Drug Screen. Data for tumor model L1210 Leukemia (intraperitoneal) in B6D2F1 (BDF1) mice
Settings: endpoint: mean survival time, higher = longer survival
Method in brief: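 Transplanted-tumor mice were given test agent; controls received vehicle only. Survival readings from the two groups were divided (treated over control).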

[1] = dose: 50.0 mg/kg/injection, schedule: Q01DX009 (ip), vehicle: Klucel (hydroxypropylcellulose) (HPC)
[2] = dose: 100.0 mg/kg/injection, schedule: Q01DX009 (ip), vehicle: Klucel (hydroxypropylcellulose) (HPC)
[3] = dose: 200.0 mg/kg/injection, schedule: Q01DX009 (ip), vehicle: Klucel (hydroxypropylcellulose) (HPC)
[4] = dose: 12.5 mg/kg/injection, schedule: Q01DX009 (ip), vehicle: Klucel (hydroxypropylcellulose) (HPC)
[5] = dose: 25.0 mg/kg/injection, schedule: Q01DX009 (ip), vehicle: Klucel (hydroxypropylcellulose) (HPC)

Measured: T/C

CC(C)CCC[C@@H](C)[C@H]1CC[C@H]2[C@@H]3CC=C4C[C@@H](OC(=O)Cc5ccc(N(CCCl)CCCl)cc5)CC[C@]4(C)[C@H]3CC[C@]12C
inactive: dose: 50.0 mg/kg/injection, schedule: Q01DX001 (sc), vehicle: steriod suspending solution 110 % of control | dose: 50.0 mg/kg/injection, schedule: Q01DX009 (oral), vehicle: saline 98 % of control | dose: 100.0 mg/kg/injection, schedule: Q01DX001 (sc), vehicle: steriod suspending solution 96 % of control | dose: 100.0 mg/kg/injection, schedule: Q01DX009 (oral), vehicle: other 121 % of control | dose: 100.0 mg/kg/injection, schedule: Q01DX009 (oral), vehicle: saline 98 % of control | dose: 100.0 mg/kg/injection, schedule: Q01DX009 (sc), vehicle: other 109 % of control | dose: 200.0 mg/kg/injection, schedule: Q01DX001 (sc), vehicle: steriod suspending solution 100 % of control | dose: 200.0 mg/kg/injection, schedule: Q01DX009 (oral), vehicle: saline 102 % of control | dose: 200.0 mg/kg/injection, schedule: Q01DX009 (sc), vehicle: other 111 % of control | dose: 250.0 mg/kg/injection, schedule: Q01DX015 (ip), vehicle: steriod suspending solution 95 % of control | dose: 400.0 mg/kg/injection, schedule: Q01DX001 (sc), vehicle: steriod suspending solution 115 % of control | dose: 400.0 mg/kg/injection, schedule: Q01DX009 (oral), vehicle: other 116 % of control | dose: 400.0 mg/kg/injection, schedule: Q01DX009 (oral), vehicle: saline 91 % of control | dose: 400.0 mg/kg/injection, schedule: Q01DX009 (sc), vehicle: other 106 % of control | dose: 400.0 mg/kg/injection, schedule: Q01DX015 (ip), vehicle: steriod suspending solution 111 % of control | dose: 800.0 mg/kg/injection, schedule: Q01DX009 (oral), vehicle: other 98 % of control | dose: 800.0 mg/kg/injection, schedule: Q01DX009 (oral), vehicle: saline 96 % of control

CC(=O)Nc1cccc(OCCCOc2cccc(C(=N)N)c2)c1
inactive: [1] 103 % of control | [2] 100 % of control | [3] 94 % of control

CC1(C)CC(=O)C(C)(C)C(=O)C1 (tested in a mixture with another compound)
inactive: dose: 25.0 mg/kg/injection, schedule: Q04DX002 (ip), vehicle: Klucel (hydroxypropylcellulose) (HPC) 102 % of control | dose: 50.0 mg/kg/injection, schedule: Q04DX002 (ip), vehicle: Klucel (hydroxypropylcellulose) (HPC) 96 % of control | dose: 100.0 mg/kg/injection, schedule: Q04DX002 (ip), vehicle: Klucel (hydroxypropylcellulose) (HPC) 108 % of control

NC(N)=N/N=C(\C(=N\N=C(N)N)c1ccccc1)c1ccccc1
inactive: dose: 60.0 mg/kg/injection, schedule: Q01DX Z (oral), vehicle: methylcellulose (MC) 98 % of control | dose: 120.0 mg/kg/injection, schedule: Q01DX Z (oral), vehicle: methylcellulose (MC) 96 % of control | dose: 240.0 mg/kg/injection, schedule: Q01DX Z (oral), vehicle: methylcellulose (MC) 94 % of control | dose: 480.0 mg/kg/injection, schedule: Q01DX Z (oral), vehicle: methylcellulose (MC) 91 % of control

O=C1C=CC(=C(c2ccccc2)c2ccccc2)C=C1
inactive: [4] 106 % of control | [5] 95 % of control | [1] 107 % of control | dose: 50.0 mg/kg/injection, schedule: Q01DX009 (ip), vehicle: saline 87 % of control | dose: 75.0 mg/kg/injection, schedule: Q04DX003 (ip), vehicle: saline 90 % of control | dose: 150.0 mg/kg/injection, schedule: Q04DX003 (ip), vehicle: saline 102 % of control

O=NN(CCCl)C(=O)NC1c2cc(Cl)ccc2-c2c(Cl)cc(Cl)cc21 (stereo not drawn)
inactive: dose: 6.6 mg/kg/injection, schedule: Q04DX003 (ip), vehicle: Klucel (hydroxypropylcellulose) (HPC) 103 % of control | dose: 9.9 mg/kg/injection, schedule: Q04DX003 (ip), vehicle: Klucel (hydroxypropylcellulose) (HPC) 116 % of control | [4] 115 % of control | dose: 20.0 mg/kg/injection, schedule: Q04DX003 (ip), vehicle: Klucel (hydroxypropylcellulose) (HPC) 102 % of control | [5] 124 % of control | dose: 40.0 mg/kg/injection, schedule: Q04DX003 (ip), vehicle: Klucel (hydroxypropylcellulose) (HPC) 119 % of control
active: [1] 232 % of control | [2] 252 % of control | dose: 115.0 mg/kg/injection, schedule: Q04DX003 (ip), vehicle: Klucel (hydroxypropylcellulose) (HPC) 154 % of control | dose: 200.0 mg/kg/injection, schedule: Q01DX001 (ip), vehicle: Klucel (hydroxypropylcellulose) (HPC) 153 % of control | [3] 267 % of control | dose: 200.0 mg/kg/injection, schedule: Q04DX003 (ip), vehicle: Klucel (hydroxypropylcellulose) (HPC) 174 % of control | dose: 400.0 mg/kg/injection, schedule: Q01DX001 (ip), vehicle: Klucel (hydroxypropylcellulose) (HPC) 170 % of control | dose: 400.0 mg/kg/injection, schedule: Q01DX009 (ip), vehicle: Klucel (hydroxypropylcellulose) (HPC) 273 % of control | dose: 400.0 mg/kg/injection, schedule: Q04DX003 (ip), vehicle: Klucel (hydroxypropylcellulose) (HPC) 157 % of control and 261 % of control
